The text below walks through data of patent US20090074802A1, “IMMUNOMODULATING OLIGOPEPTIDES” (priority 2006, published 2009).

The test system of the assay is Balb/c mice immunized with KLH. The assay can be described thus: Humoral immune response to T-cell dependent antigen (KLH) in mice; isotype-specific anti-KLH ELISA of serum. The format is in vivo, mouse. The settings on record: day 28 after a single injection; 20 μg peptide i.p.; KLH 20 μg s.c. with complete Freund adjuvant. The protocol: To investigate the effect of B134, a representative of the XPY family, inbred SPF mice (Balb/cAwNCrl, 7 to 8 week old, Charles River Laboratories GmbH, Germany) were immunized with KLH, a T-cell dependent antigen. 3 mice per group were injected subcutaneously in the presence of complete Freund adjuvant (50/50 v/v). The mix of antigen (20 μg in 100 μl) with adjuvant (Sigma, #F-5881) was emulsified and injected in the neck region. At the same day 20 μg of immunomodulator B134 or B211 were injected in 200 μl of PBS intraperitoneally. Samples of blood (50-70 μl) were collected from mice on day 7, 14, 21, and 28 from the leg vein. Serum was prepared by clotting the blood for 2 hours at 37° C., followed by 18 hours at 8° C., and centrifugation at 10,000 rpm in an Eppendorf-like centrifuge. Sera were stored diluted with antibody stabilizer (SkyTec ABB500) at 4° C., and analyzed in ELISA simultaneously. For the latter assay, the 96 wells ELISA plates (Greiner, #655061) were coated with KLH (soluble, Sigma H7017) in phosphate buffered solution (PBS), 0.2 μg/well overnight at 4° C. The diluted sera were incubated with antigen ([…]) for 1 hour at room temperature, followed by a wash with PBS/0.1% Tween-20. The binding of mouse antibodies to KLH was detected using isotype specific anti-mouse immunoglobulins, conjugated with HRP (Southern Biotechnology Ltd., anti-mouse IgM #1021-05, anti-mouse IgG1 #1070-05, anti-mouse IgG2a # 1080-05, anti-mouse IgG2b #1090-05) according to the manufacturer's protocol. TMB was used as a substrate. The results were analyzed on Bio-Rad Microplate Reader Model 550, the optical density was measured at 595 nm.
Results shown in FIG. 1 represent titration slope of the serum from experimental mice. The dilutions of sera used are from 1/300 to 1/20,000 with a step of ½ (indicated on X axis as 1 to 6 respectively). The serum reactivity is presented as O.D. shown by a sample in ELISA. The dots represent the average reactivity of samples from 3 sera (from 3 mice per condition). The variation bar represents the 95% confidence interval.
On the technique in general: In an ELISA, binding on a coated surface is turned into a signal by an enzyme label.

For IEWIPY [B211], the “titer of IgG2a, times higher than in control mice immunized with antigen alone” value is given as roughly 4 times; the “titer of IgG2b, times higher than in control mice immunized with antigen alone” value is given as roughly 4 times; the “titre of specific IgG1 in sera, times higher than in control mice immunized with antigen alone” value was “approximately 16 times”.
With Ile-Pro-Tyr [B134], the “titer of IgG2a, times higher than in control mice immunized with antigen alone” value is “approximately 2 times”; the “titer of IgG2b, times higher than in control mice immunized with antigen alone” value is listed as “approximately 2 times”; the “titer of IgM, times higher than in control mice immunized with antigen alone (every isotype analyzed)” value is given as “approximately 2 times”; the “titre of specific IgG1 in sera, times higher than in control mice immunized with antigen alone” value is “approximately 2 times”.
